From patent US5773424A, “Treatment of toxoplasmosis” (priority 1994, dated 1998)
Read-outs that look alike come from different tables or passages of the source.

Target: T. gondii adenosine kinase (Toxoplasma gondii, UniProt Q9TVW2)
Test: biochemical
Conditions: for inhibition at 1000 µM: read-out: Inhibition of T. gondii adenosine kinase
Procedure: Preparation of cytosol extracts. For the structure activity relationships studies, approximately 5×10^8 T. gondii were suspended in 1.2 ml of 50 mM N-2-hydroxyethylpiperazine-N'-2-ethanesulfonic acid (HEPES)-Cl (pH 8.0)/1 mM dithiothreitol and homogenized for 30 seconds at setting 10, using a Brinnmann Instruments Polytron homogenizer fitted with a PTA 7K1 probe. The homogenate was then centrifuged at approximately 116,000 g for 1 hour at 5° and the supernatant (cytosol extract) collected and used as the enzyme source. Fresh cytosol extracts were prepared for each experiment.
Adenosine kinase assay. T. gondii adenosine kinase activity was measured by following the formation of [^14 C]AMP from [^14 C]adenosine and ATP. […] Therefore, the standard reaction mixture contained 50 mM HEPES-Cl (pH 8.0), 1 mM dithiothreitol, 5 μM [8-^14 C]adenosine (45 Ci/mol), 0.5 mM ATP, 0.5 mM MgCl2, 25 μM (+)-EHNA or 100 μM (±)-EHNA,10-30 μl of cytosol extract (approximately 3-10 μg of protein), and either 0, 0.1, 0.25, 0.5 or 1.0 mM of the compound to be tested, in a final volume of 150 μl.
Reactions were started by the addition of [8-^14 C]adenosine, incubated at 37° for 10 minutes and terminated by placing the reaction tubes in a boiling water bath for 2 minutes. Precipitated proteins were removed by centrifugation in a microcentrifuge (approximately 13,000 g) for 5 minutes, and a 15 μl aliquot of the resulting supernatant was mixed with 5 μl of a solution containing 10 mM each of AMP and adenosine. This mixture was then spotted on silica gel thin layer chromatography plates which were developed with a mixture of chloroform/methanol/acetic acid (16:3:1). […] The substrate and product spots (which accounted for all of the radioactivity on the plates) were identified by UV quenching, cut out, and the radioactivity quantitated by liquid scintillation counting in 20 ml of Scintilene, using a Packard 460 scintillation counter. […] Enzyme velocity was calculated by multiplying the fraction of AMP formed from adenosine times the amount of adenosine in the assay, and dividing by the incubation time.
Determination and significance of AppKi values. AppKi values were used to determine the relative degree of binding of compounds to adenosine kinase as compared to adenosine. AppKi values were estimated from Dixon plots of the data (1/.nu. versus [I]), using a computer program with least squares fitting according to the general principles of Cleland (Cleland, W W, The statistical analysis of enzyme kinetic data. Adv. Enzymol. 29:1-32, 1967). The program was written by Dr. Sungman Cha (Brown University, Providence, R.I.) and modified to fit IBM BASIC by Dr. Fardos N. M. Naguib. […] It should be noted, however, that the type of inhibition (i.e., competitive, noncompetitive, or uncompetitive) produced by the compounds was not determined, nor were the compounds evaluated as substrates for T. gondii adenosine kinase.

[1] = AppKi for inhibition of T. gondii adenosine kinase, 5 μM adenosine, ± range, at least two estimations

T. gondii adenosine kinase, sequence (Q9TVW2 whole entry): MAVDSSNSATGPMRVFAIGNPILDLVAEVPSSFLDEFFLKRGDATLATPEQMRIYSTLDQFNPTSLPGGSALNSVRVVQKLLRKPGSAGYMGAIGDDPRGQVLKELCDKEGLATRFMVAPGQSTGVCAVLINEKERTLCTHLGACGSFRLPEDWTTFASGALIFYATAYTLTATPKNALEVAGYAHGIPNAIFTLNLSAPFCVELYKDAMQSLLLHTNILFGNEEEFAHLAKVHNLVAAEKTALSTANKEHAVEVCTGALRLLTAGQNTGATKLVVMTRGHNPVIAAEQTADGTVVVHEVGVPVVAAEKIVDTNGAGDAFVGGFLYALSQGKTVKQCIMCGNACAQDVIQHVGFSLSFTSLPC

Q: With CCCCCCC(C(C)O)n1cnc2c(N)ncnc21 (racemic) [Compound 113, (±)-EHNA] as the compound, how does the inhibition at 1000 µM read?
A: < 10%

Q: How did the Ki (read-out: AppKi for inhibition of T. gondii adenosine kinase, 5 μM adenosine, ± range, at least two estimations) turn out when Nc1ncnc2c1ncn2[C@@H]1C[C@H](CO)[C@@H](O)[C@H]1O (relative stereo) [Compound 112, Carbocyclic adenosine] was run?
A: 170 ± 30 µM

Q: With Nc1ncnc2c1ncn2[C@@H]1O[C@H](CO)[C@@H](O)[C@H]1O [Compound 1] as the compound, how does the Ki read?
A: 7 ± 3.3 µM

Q: Nc1ncnc2c1ncn2[C@H]1O[C@@H](CO)[C@H](O)[C@@H]1O [Compound 2] was tested. Which inhibition at 1000 µM did it give?
A: < 10%

Q: How did the Ki turn out when Nc1ncnc2c1ncn2[C@H]1O[C@H](CO)[C@@H](O)[C@H]1O [Compound 3] was run?
A: 8400 µM

Q: With Nc1c2ncn([C@@H]3O[C@H](CO)[C@@H](O)[C@H]3O)c2nc[n+]1[O-] [Compound 4] as the compound, how does the Ki read?
A: 1230 µM

Q: With Nc1ccnc2c1ncn2[C@@H]1O[C@H](CO)[C@@H](O)[C@H]1O [Compound 5] as the compound, how does the inhibition at 1000 µM read?
A: < 10%

Q: Cn1cnc2c(ncn2[C@@H]2O[C@H](CO)[C@@H](O)[C@H]2O)c1=N [Compound 6] was tested. Which Ki did it give?
A: 88 ± 28 µM

Q: Which Ki does the source give for Nc1nc(Cl)nc2c1ncn2[C@@H]1O[C@H](CO)[C@@H](O)[C@H]1O [Compound 7] here?
A: 870 ± 50 µM

Q: For Nc1nc(F)nc2c1ncn2[C@@H]1O[C@H](CO)[C@@H](O)[C@H]1O [Compound 8], which Ki [1] is on record?
A: 3000 µM

Q: With Nc1nc(Nc2ccccc2)nc2c1ncn2[C@@H]1O[C@H](CO)[C@@H](O)[C@H]1O [Compound 9] as the compound, how does the inhibition at 1000 µM read?
A: < 10%

Q: With Nc1nccc2c1ncn2[C@@H]1O[C@H](CO)[C@@H](O)[C@H]1O [Compound 10] as the compound, how does the inhibition at 1000 µM read?
A: < 10%

Q: For OC[C@H]1O[C@@H](n2cnc3cncnc32)[C@H](O)[C@@H]1O [Compound 11], which Ki [1] is on record?
A: 170 ± 20 µM

Q: With OC[C@H]1O[C@@H](n2cnc3c(Br)ncnc32)[C@H](O)[C@@H]1O [Compound 12] as the compound, how does the Ki read?
A: 28 ± 2 µM

Q: OC[C@H]1O[C@@H](n2cnc3c(Cl)ncnc32)[C@H](O)[C@@H]1O [Compound 13, 6-Chloropurine riboside] was tested. Which Ki did it give?
A: 9.5 µM

Q: Which Ki does the source give for OC[C@H]1O[C@@H](n2cnc3c(I)ncnc32)[C@H](O)[C@@H]1O [Compound 14] here?
A: 18 ± 1 µM

Q: O=c1[nH]cnc2c1ncn2[C@@H]1O[C@H](CO)[C@@H](O)[C@H]1O [Compound 15] was tested. Which inhibition at 1000 µM did it give?
A: < 10%

Q: COc1ncnc2c1ncn2[C@@H]1O[C@H](CO)[C@@H](O)[C@H]1O [Compound 16] was tested. Which Ki did it give?
A: 370 ± 40 µM

Q: For OC[C@H]1O[C@@H](n2cnc3c(S)ncnc32)[C@H](O)[C@@H]1O [Compound 17], which Ki is on record?
A: 5300 µM

Q: CCSc1ncnc2c1ncn2[C@@H]1O[C@H](CO)[C@@H](O)[C@H]1O [Compound 19] was tested. Which Ki did it give?
A: 330 ± 3 µM

Q: How did the Ki [1] turn out when O=[N+]([O-])c1ccc(CSc2ncnc3c2ncn3[C@@H]2O[C@H](CO)[C@@H](O)[C@H]2O)cc1 [Compound 21] was run?
A: 140 ± 10 µM

Q: OC[C@H]1O[C@@H](n2cnc3c(=[Se])[nH]cnc32)[C@H](O)[C@@H]1O [Compound 23] was tested. Which Ki [1] did it give?
A: 130 ± 20 µM

Q: How did the Ki [1] turn out when O=[N+]([O-])c1ccc(C[Se]c2ncnc3c2ncn3[C@@H]2O[C@H](CO)[C@@H](O)[C@H]2O)cc1 [Compound 24] was run?
A: 84 ± 46 µM

Q: For CNc1ncnc2c1ncn2[C@@H]1O[C@H](CO)[C@@H](O)[C@H]1O [Compound 26], which Ki [1] is on record?
A: 23 ± 1 µM

Q: How did the Ki turn out when CCNc1ncnc2c1ncn2[C@@H]1O[C@H](CO)[C@@H](O)[C@H]1O [Compound 28] was run?
A: 100 ± 3 µM

Q: C=CCNc1ncnc2c1ncn2[C@@H]1O[C@H](CO)[C@@H](O)[C@H]1O [Compound 30] was tested. Which Ki did it give?
A: 220 ± 20 µM

Q: How did the Ki turn out when CCCCNc1ncnc2c1ncn2[C@@H]1O[C@H](CO)[C@@H](O)[C@H]1O [Compound 32] was run?
A: 220 ± 90 µM

Q: With C/C(=C\CNc1ncnc2c1ncn2[C@@H]1O[C@H](CO)[C@@H](O)[C@H]1O)CO [Compound 34] as the compound, how does the Ki read?
A: 280 ± 20 µM

Q: How did the Ki [1] turn out when CC(C)=CCNc1ncnc2c1ncn2[C@@H]1O[C@H](CO)[C@@H](O)[C@H]1O [Compound 36] was run?
A: 51 ± 4 µM

Q: OC[C@H]1O[C@@H](n2cnc3c(NCc4ccco4)ncnc32)[C@H](O)[C@@H]1O [Compound 38] was tested. Which Ki did it give?
A: 180 ± 10 µM

Q: With CCCCCCNc1ncnc2c1ncn2[C@@H]1O[C@H](CO)[C@@H](O)[C@H]1O [Compound 39] as the compound, how does the Ki read?
A: 76 ± 4 µM

Q: How did the Ki turn out when OC[C@H]1O[C@@H](n2cnc3c(NC4CCCCC4)ncnc32)[C@H](O)[C@@H]1O [Compound 40] was run?
A: 240 ± 70 µM

Q: CC(C)=CCCC(C)=CCNc1ncnc2c1ncn2[C@@H]1O[C@H](CO)[C@@H](O)[C@H]1O [Compound 41] was tested. Which Ki did it give?
A: 100 ± 5 µM

Q: With CCCCCCCCCCNc1ncnc2c1ncn2[C@@H]1O[C@H](CO)[C@@H](O)[C@H]1O [Compound 42] as the compound, how does the Ki read?
A: 380 ± 130 µM

Q: For OC[C@H]1O[C@@H](n2cnc3c(Nc4ccccc4)ncnc32)[C@H](O)[C@@H]1O [Compound 43], which Ki is on record?
A: 88 ± 12 µM

Q: Which Ki does the source give for O=C(Nc1ncnc2c1ncn2[C@@H]1O[C@H](CO)[C@@H](O)[C@H]1O)c1ccccc1 [Compound 44] here?
A: 23 ± 1 µM

Q: How did the Ki turn out when OC[C@H]1O[C@@H](n2cnc3c(NCc4ccccc4)ncnc32)[C@H](O)[C@@H]1O [Compound 45] was run?
A: 100 ± 30 µM

Q: For Nc1ccc(CNc2ncnc3c2ncn3[C@@H]2O[C@H](CO)[C@@H](O)[C@H]2O)cc1 [Compound 46], which Ki is on record?
A: 120 ± 10 µM

Q: For COc1ccc(C(=O)Nc2ncnc3c2ncn3[C@@H]2O[C@H](CO)[C@@H](O)[C@H]2O)cc1 [Compound 47], which Ki is on record?
A: 3.9 ± 0.9 µM

Q: With C[C@H](Cc1ccccc1)Nc1ncnc2c1ncn2[C@@H]1O[C@H](CO)[C@@H](O)[C@H]1O [Compound 49] as the compound, how does the Ki read?
A: 750 ± 30 µM

Q: For Nc1ncnc2c1ccn2[C@@H]1O[C@H](CO)[C@@H](O)[C@H]1O [Compound 51], which Ki [1] is on record?
A: 340 ± 80 µM

Q: Which Ki [1] does the source give for Nc1ncnc2c1c(Cl)cn2[C@@H]1O[C@H](CO)[C@@H](O)[C@H]1O [Compound 52] here?
A: 10 ± 1 µM

Q: For N#Cc1cn([C@@H]2O[C@H](CO)[C@@H](O)[C@H]2O)c2ncnc(N)c12 [Compound 54, 7-Cyano-7-deazaadenosine (Toyocamycin)], which Ki [1] is on record?
A: < 60 µM

Q: For N#Cc1cn([C@@H]2O[C@H](CO)[C@@H](O)[C@H]2O)c2ncnc(N)c12 [Compound 54], which Ki [1] is on record?
A: 21 ± 2 µM

Q: For NC(=O)c1cn([C@@H]2O[C@H](CO)[C@@H](O)[C@H]2O)c2ncnc(N)c12 [Compound 55, 7-Carboxamido-7-deazaadenosine (Sangivamycin)], which Ki [1] is on record?
A: < 60 µM

Q: NC(=NO)c1cn([C@@H]2O[C@H](CO)[C@@H](O)[C@H]2O)c2ncnc(N)c12 [Compound 56] was tested. Which Ki did it give?
A: 200 ± 6 µM

Q: With Nc1ncnc2c1nnn2[C@@H]1O[C@H](CO)[C@@H](O)[C@H]1O [Compound 57] as the compound, how does the Ki read?
A: 23 ± 6 µM

Q: Nc1ncnc2c1nc(Br)n2[C@@H]1O[C@H](CO)[C@@H](O)[C@H]1O [Compound 59] was tested. Which Ki did it give?
A: 660 ± 70 µM

Q: Nc1ncnc2c([C@@H]3O[C@H](CO)[C@@H](O)[C@H]3O)c[nH]c12 [Compound 60] was tested. Which Ki did it give?
A: 3400 µM

Q: Which inhibition at 1000 µM does the source give for OC[C@H]1O[C@@H](n2cnc3cccnc32)[C@H](O)[C@@H]1O [Compound 61] here?
A: < 10%

Q: Which Ki does the source give for Nc1nc(Cl)c2ncn([C@@H]3O[C@H](CO)[C@@H](O)[C@H]3O)c2n1 [Compound 63] here?
A: 1800 µM

Q: For Nc1nc2c(ncn2[C@@H]2O[C@H](CO)[C@@H](O)[C@H]2O)c(=O)[nH]1 [Compound 64], which inhibition at 1000 µM is on record?
A: < 10%

Q: OC[C@H]1O[C@@H](n2cnc3c(NC4CCCC4)nc(Cl)nc32)[C@H](O)[C@@H]1O [Compound 66] was tested. Which Ki [1] did it give?
A: 390 ± 90 µM

Q: With O=c1[nH]c(=O)c2ncn([C@@H]3O[C@H](CO)[C@@H](O)[C@H]3O)c2[nH]1 [Compound 67] as the compound, how does the inhibition at 1000 µM read?
A: < 10%

Q: How did the Ki turn out when OC[C@H]1O[C@@H](n2ccc3c(Cl)ncnc32)[C@H](O)[C@@H]1O [Compound 68] was run?
A: 72 ± 12 µM

Q: For NNc1ncnc2c1ccn2[C@@H]1O[C@H](CO)[C@@H](O)[C@H]1O [Compound 69, 6-Hydrazino-7-deazapurine riboside], which Ki is on record?
A: 180 ± 10 µM

Q: How did the Ki turn out when OC[C@H]1O[C@@H](n2cc(Br)c3c(NO)ncnc32)[C@H](O)[C@@H]1O [Compound 70, N^6 -Hydroxy-7-bromo-7-deazaadenosine] was run?
A: 37 ± 9 µM

Q: With CNc1ncnc2c1c(C(N)=S)cn2[C@@H]1O[C@H](CO)[C@@H](O)[C@H]1O [Compound 71, N^6 -Methyl-7-thiocarboxyamido-7-deazaadenosine] as the compound, how does the Ki read?
A: 150 ± 1 µM

Q: Which Ki does the source give for Nc1ncnc2c1cnn2[C@@H]1O[C@H](CO)[C@@H](O)[C@H]1O [Compound 72, 8-Aza-7-deazaadenosine] here?
A: 1700 µM

Q: Which Ki does the source give for NC(=NO)c1c(Br)n([C@@H]2O[C@H](CO)[C@@H](O)[C@H]2O)c2ncnc(N)c12 [Compound 73, 8-Bromo-7-carboxyamidoxime-7-deazaadenosine] here?
A: 210 ± 30 µM
